{"source": "PubChem BioAssay AID2060487", "about": "(Molecular Pharmacology Branch, DTP, NCI, 2025);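 also: spheroids exposed to the agents for 7 days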;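 as to viability, T/C: 100% = DMSO vehicle control viability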", "tested_on": "997537-175-T-J1-PDC complex spheroid viability", "assay": "Anticancer human tumor 997537-175-T-J1-PDC patient-derived colon adenocarcinoma cell line growth inhibition [GQUAD]", "details": "for IC50: curve of first compound; for viability, T/C: stronger effect = lower value", "in_short": "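Multi-cell-type spheroids of tumor cells with HUVEC and mesenchymal stem cells, treated with drug combinations. Concentrations descend in half-log steps from near clinical Cmax, or from 10 microM where Cmax is unknown; viability read-out.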", "key": {"[1]": {"details": "second compound 0.0316 µM, first compound 0.0316 µM"}, "[2]": {"details": "second compound 0.0316 µM, first compound 0.1 µM"}, "[3]": {"details": "second compound 0.0316 µM, first compound 0.316 µM"}, "[4]": {"details": "second compound 0.0316 µM, first compound 1 µM"}, "[5]": {"details": "second compound 0.0316 µM, first compound 3.16 µM"}, "[6]": {"details": "second compound 0.0316 µM, first compound 10 µM"}, "[7]": {"details": "second compound 0.1 µM, first compound 0.0316 µM"}, "[8]": {"details": "second compound 0.1 µM, first compound 0.1 µM"}, "[9]": {"details": "second compound 0.1 µM, first compound 0.316 µM"}, "[10]": {"details": "second compound 0.1 µM, first compound 1 µM"}, "[11]": {"details": "second compound 0.1 µM, first compound 3.16 µM"}, "[12]": {"details": "second compound 0.1 µM, first compound 10 µM"}, "[13]": {"details": "second compound 0.316 µM, first compound 0.0316 µM"}, "[14]": {"details": "second compound 0.316 µM, first compound 0.1 µM"}, "[15]": {"details": "second compound 0.316 µM, first compound 0.316 µM"}, "[16]": {"details": "second compound 0.316 µM, first compound 1 µM"}, "[17]": {"details": "second compound 0.316 µM, first compound 3.16 µM"}, "[18]": {"details": "second compound 0.316 µM, first compound 10 µM"}, "[19]": {"details": "second compound 1 µM, first compound 0.0316 µM"}, "[20]": {"details": "second compound 1 µM, first compound 0.1 µM"}, "[21]": {"details": "second compound 1 µM, first compound 0.316 µM"}, "[22]": {"details": "second compound 1 µM, first compound 1 µM"}, "[23]": {"details": "second compound 1 µM, first compound 3.16 µM"}, "[24]": {"details": "second compound 1 µM, first compound 10 µM"}, "[25]": {"details": "second compound 3.16 µM, first compound 0.0316 µM"}, "[26]": {"details": "second compound 3.16 µM, first compound 0.1 µM"}, "[27]": {"details": "second compound 3.16 µM, first compound 0.316 µM"}, "[28]": {"details": "second compound 3.16 µM, first compound 1 µM"}, "[29]": {"details": "second compound 3.16 µM, first compound 3.16 µM"}, "[30]": {"details": "second compound 3.16 µM, first compound 10 µM"}, "[31]": {"details": "second compound 10 µM, first compound 0.0316 µM"}, "[32]": {"details": "second compound 10 µM, first compound 0.1 µM"}, "[33]": {"details": "second compound 10 µM, first compound 0.316 µM"}, "[34]": {"details": "second compound 10 µM, first compound 1 µM"}, "[35]": {"details": "second compound 10 µM, first compound 3.16 µM"}, "[36]": {"details": "second compound 10 µM, first compound 10 µM"}}}
{"smiles": "COc1cccc2c1C(=O)c1c(O)c3c(c(O)c1C2=O)CC(O)(C(=O)CO)CC3OC1CC(N)C(O)C(C)O1", "note": "(centres undefined) + Cc1cnc(CNC(=O)c2c(=O)c3ccc(N4CCCN(C)CC4)nc3n3c2sc2ccccc23)cn1", "values": [{"measurement": "IC50", "setting": "second compound 0.0316 µM", "value": "> 10", "unit": "µM"}, {"measurement": "IC50", "setting": "second compound 0.1 µM", "value": "> 10", "unit": "µM"}, {"measurement": "IC50", "setting": "second compound 0.316 µM", "value": 8.33, "unit": "µM"}, {"measurement": "IC50", "setting": "second compound 1 µM", "value": 7.33, "unit": "µM"}, {"measurement": "IC50", "setting": "second compound 3.16 µM", "value": 5.89, "unit": "µM"}, {"measurement": "IC50", "setting": "second compound 10 µM", "value": 6.25, "unit": "µM"}, {"measurement": "viability, T/C", "setting": "[1]", "value": 112, "unit": "%"}, {"measurement": "viability, T/C", "setting": "[2]", "value": 74.6, "unit": "%"}, {"measurement": "viability, T/C", "setting": "[3]", "value": 97.5, "unit": "%"}, {"measurement": "viability, T/C", "setting": "[4]", "value": 93.6, "unit": "%"}, {"measurement": "viability, T/C", "setting": "[5]", "value": 80, "unit": "%"}, {"measurement": "viability, T/C", "setting": "[6]", "value": 52.8, "unit": "%"}, {"measurement": "viability, T/C", "setting": "[7]", "value": 107, "unit": "%"}, {"measurement": "viability, T/C", "setting": "[8]", "value": 76.5, "unit": "%"}, {"measurement": "viability, T/C", "setting": "[9]", "value": 94, "unit": "%"}, {"measurement": "viability, T/C", "setting": "[10]", "value": 90.8, "unit": "%"}, {"measurement": "viability, T/C", "setting": "[11]", "value": 86.5, "unit": "%"}, {"measurement": "viability, T/C", "setting": "[12]", "value": 55.2, "unit": "%"}, {"measurement": "viability, T/C", "setting": "[13]", "value": 82.3, "unit": "%"}, {"measurement": "viability, T/C", "setting": "[14]", "value": 90.4, "unit": "%"}, {"measurement": "viability, T/C", "setting": "[15]", "value": 115, "unit": "%"}, {"measurement": "viability, T/C", "setting": "[16]", "value": 98.5, "unit": "%"}, {"measurement": "viability, T/C", "setting": "[17]", "value": 87, "unit": "%"}, {"measurement": "viability, T/C", "setting": "[18]", "value": 42.5, "unit": "%"}, {"measurement": "viability, T/C", "setting": "[19]", "value": 91.5, "unit": "%"}, {"measurement": "viability, T/C", "setting": "[20]", "value": 68.4, "unit": "%"}, {"measurement": "viability, T/C", "setting": "[21]", "value": 116, "unit": "%"}, {"measurement": "viability, T/C", "setting": "[22]", "value": 106, "unit": "%"}, {"measurement": "viability, T/C", "setting": "[23]", "value": 88, "unit": "%"}, {"measurement": "viability, T/C", "setting": "[24]", "value": 36, "unit": "%"}, {"measurement": "viability, T/C", "setting": "[25]", "value": 69.7, "unit": "%"}, {"measurement": "viability, T/C", "setting": "[26]", "value": 81.3, "unit": "%"}, {"measurement": "viability, T/C", "setting": "[27]", "value": 78, "unit": "%"}, {"measurement": "viability, T/C", "setting": "[28]", "value": 103, "unit": "%"}, {"measurement": "viability, T/C", "setting": "[29]", "value": 93.4, "unit": "%"}, {"measurement": "viability, T/C", "setting": "[30]", "value": 20.1, "unit": "%"}, {"measurement": "viability, T/C", "setting": "[31]", "value": 75.8, "unit": "%"}, {"measurement": "viability, T/C", "setting": "[32]", "value": 77.4, "unit": "%"}, {"measurement": "viability, T/C", "setting": "[33]", "value": 109, "unit": "%"}, {"measurement": "viability, T/C", "setting": "[34]", "value": 91.9, "unit": "%"}, {"measurement": "viability, T/C", "setting": "[35]", "value": 93.2, "unit": "%"}, {"measurement": "viability, T/C", "setting": "[36]", "value": 22.7, "unit": "%"}]}
{"smiles": "C=CCn1c(=O)c2cnc(Nc3ccc(N4CCN(C)CC4)cc3)nc2n1-c1cccc(C(C)(C)O)n1", "note": "+ Cc1[nH]c2ccc(F)cc2c1-c1nc2c3cccnc3c3ncccc3c2[nH]1", "values": [{"measurement": "IC50", "setting": "second compound 0.0316 µM", "value": 6.61, "unit": "µM"}, {"measurement": "IC50", "setting": "second compound 0.1 µM", "value": 6.38, "unit": "µM"}, {"measurement": "IC50", "setting": "second compound 0.316 µM", "value": 6.16, "unit": "µM"}, {"measurement": "IC50", "setting": "second compound 1 µM", "value": 5.5, "unit": "µM"}, {"measurement": "IC50", "setting": "second compound 3.16 µM", "value": 2.24, "unit": "µM"}, {"measurement": "IC50", "setting": "second compound 10 µM", "value": 2.09, "unit": "µM"}, {"measurement": "viability, T/C", "setting": "[1]", "value": 102, "unit": "%"}, {"measurement": "viability, T/C", "setting": "[2]", "value": 68.9, "unit": "%"}, {"measurement": "viability, T/C", "setting": "[3]", "value": 82.3, "unit": "%"}, {"measurement": "viability, T/C", "setting": "[4]", "value": 83.6, "unit": "%"}, {"measurement": "viability, T/C", "setting": "[5]", "value": 90.9, "unit": "%"}, {"measurement": "viability, T/C", "setting": "[6]", "value": 30, "unit": "%"}, {"measurement": "viability, T/C", "setting": "[7]", "value": 105, "unit": "%"}, {"measurement": "viability, T/C", "setting": "[8]", "value": 97.1, "unit": "%"}, {"measurement": "viability, T/C", "setting": "[9]", "value": 89.8, "unit": "%"}, {"measurement": "viability, T/C", "setting": "[10]", "value": 89.2, "unit": "%"}, {"measurement": "viability, T/C", "setting": "[11]", "value": 93.6, "unit": "%"}, {"measurement": "viability, T/C", "setting": "[12]", "value": 22.2, "unit": "%"}, {"measurement": "viability, T/C", "setting": "[13]", "value": 86.8, "unit": "%"}, {"measurement": "viability, T/C", "setting": "[14]", "value": 98.8, "unit": "%"}, {"measurement": "viability, T/C", "setting": "[15]", "value": 79.3, "unit": "%"}, {"measurement": "viability, T/C", "setting": "[16]", "value": 86.4, "unit": "%"}, {"measurement": "viability, T/C", "setting": "[17]", "value": 84.4, "unit": "%"}, {"measurement": "viability, T/C", "setting": "[18]", "value": 25, "unit": "%"}, {"measurement": "viability, T/C", "setting": "[19]", "value": 86.6, "unit": "%"}, {"measurement": "viability, T/C", "setting": "[20]", "value": 102, "unit": "%"}, {"measurement": "viability, T/C", "setting": "[21]", "value": 86.4, "unit": "%"}, {"measurement": "viability, T/C", "setting": "[22]", "value": 78.3, "unit": "%"}, {"measurement": "viability, T/C", "setting": "[23]", "value": 71.2, "unit": "%"}, {"measurement": "viability, T/C", "setting": "[24]", "value": 30.1, "unit": "%"}, {"measurement": "viability, T/C", "setting": "[25]", "value": 92, "unit": "%"}, {"measurement": "viability, T/C", "setting": "[26]", "value": 87.3, "unit": "%"}, {"measurement": "viability, T/C", "setting": "[27]", "value": 72.4, "unit": "%"}, {"measurement": "viability, T/C", "setting": "[28]", "value": 56.5, "unit": "%"}, {"measurement": "viability, T/C", "setting": "[29]", "value": 55, "unit": "%"}, {"measurement": "viability, T/C", "setting": "[30]", "value": 6.52, "unit": "%"}, {"measurement": "viability, T/C", "setting": "[31]", "value": 91.9, "unit": "%"}, {"measurement": "viability, T/C", "setting": "[32]", "value": 65.1, "unit": "%"}, {"measurement": "viability, T/C", "setting": "[33]", "value": 74.9, "unit": "%"}, {"measurement": "viability, T/C", "setting": "[34]", "value": 66.5, "unit": "%"}, {"measurement": "viability, T/C", "setting": "[35]", "value": 42.1, "unit": "%"}, {"measurement": "viability, T/C", "setting": "[36]", "value": 11.5, "unit": "%"}]}
